*1 amine or outer side, *2 acyl side, *3 side chain or, on linkers, in order; H or OH if unused. Where a SMILES comes first, the peptide text is derived from it. Bridges are numbered along the chain shown (N, C = ends). [ ]: non-standard residue; d: D form. The star is where a group is joined. ξ: configuration not given here. Bip = N[C@@H](Cc1ccc(-c2ccccc2)cc1)C(=O)O; Morpholine(3S-CO) = O=C(O)[C@@H]1COCCN1; Phe(3-Me) = Cc1cccc(C[C@H](N)C(=O)O)c1; Pip(4-aza) = O=C(O)[C@@H]1CNCCN1; 4Pal = N[C@@H](Cc1ccncc1)C(=O)O; X1 = O=C(CN1CCN([*:1])CC1)[*:2]; Cha = N[C@@H](CC1CCCCC1)C(=O)O; Cit = NC(=O)NCCC[C@H](N)C(=O)O; Thr(3ξ) = CC(O)[C@H](N)C(=O)O; Carboxymethyl = O=C(O)C*; NMeA = CN[C@@H](C)C(=O)O; Aun = NCCCCCCCCCCC(=O)O; Dab = NCC[C@H](N)C(=O)O

Drawing on patent US20260070945A1, “MACROCYCLIC IMMUNOMODULATORS” (Bristol-Myers Squibb Company, priority 2022, published 2026), this text covers IC50 for five compounds.

The target of this experiment is T1, PD-1/PD-L1 interaction (PE-labeled human PD-L1-Ig binding to Jurkat cell line over-expressing human PD-1) (Homo sapiens, UniProt Q15116).
T1 construct: expressed in transfected cells; host or cells: Jurkat
T1 sequence (Q15116 25-288): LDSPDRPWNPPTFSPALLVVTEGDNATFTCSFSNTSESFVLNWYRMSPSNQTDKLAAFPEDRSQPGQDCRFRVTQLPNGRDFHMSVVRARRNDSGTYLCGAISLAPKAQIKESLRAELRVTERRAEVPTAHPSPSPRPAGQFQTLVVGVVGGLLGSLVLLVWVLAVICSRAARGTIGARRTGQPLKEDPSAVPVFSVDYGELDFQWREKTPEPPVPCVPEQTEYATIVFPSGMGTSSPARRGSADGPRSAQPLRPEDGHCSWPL
The experiment in a line: Jurkat-PD-1 Cell Binding High-Content Screening Assay (CBA). The note with it: Jurkat-hPD-1 cells, PE-labeled PD-L1-Ig 20 nM final; read-out: Jurkat HPD1 PDL1 IC50. The method in brief:
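Read-out: high-content imaging of cell-bound PE fluorescence, with Hoechst 33342 nuclear counterstain after paraformaldehyde fixation. Before labeled ligand (20 nM final, 1 h) was added, compound sat on the cells for 2 h at 37 °C in DMEM/10% FCS.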
For the compound `CC(C)C[C@@H]1NC(=O)[C@H](Cc2c[nH]c3ccccc23)NC(=O)[C@H](CC(=O)O)NC(=O)[C@H](Cc2ccncc2)NC(=O)[C@H](Cc2ccc(OCC(=O)O)cc2)NC(=O)CSC[C@@H](C(=O)N2CCN(CC(=O)NCCCCCCCCCCC(=O)O)CC2)NC(=O)[C@H](CCCNC(N)=O)NC(=O)[C@H](C(C)C)NC(=O)[C@H](CC2CCCCC2)NC(=O)[C@H](CCN)NC(=O)[C@@H](CC(C)C)NC(=O)[C@H](C)N(C)C(=O)[C@H](C(C)C)NC(=O)[C@H](Cc2ccc(-c3ccccc3)cc2)NC1=O` [Example 1220] ({CH2CO}-Y(Carboxymethyl)[4Pal]DWL[Bip]V[NMeA][dL][Dab][Cha]V[Cit]C[X1][Aun]-OH; thioether N-14), the IC50 worked out at 182 nM.
On to `CC(C)C[C@@H]1NC(=O)[C@H](Cc2c[nH]c3ccccc23)NC(=O)[C@H](CC(=O)O)NC(=O)[C@H](Cc2ccncc2)NC(=O)[C@H](Cc2ccc(OCC(=O)O)cc2)NC(=O)CSC[C@@H](C(=O)N2CCNC[C@H]2C(=O)NCCCCCCCCCCC(=O)O)NC(=O)[C@H](C(C)O)NC(=O)[C@H](C(C)C)NC(=O)[C@H](CC2CCCCC2)NC(=O)[C@H](CCN)NC(=O)[C@@H](CC(C)C)NC(=O)[C@H](C)N(C)C(=O)[C@H](C(C)C)NC(=O)[C@H](Cc2ccc(-c3ccccc3)cc2)NC1=O` (stereo partly drawn) [Example 1221] ({CH2CO}-Y(Carboxymethyl)[4Pal]DWL[Bip]V[NMeA][dL][Dab][Cha]V[Thr(3ξ)]C[Pip(4-aza)][Aun]-OH; thioether N-14), for which the IC50 came out at 121 nM.
For `CC(C)C[C@@H]1NC(=O)[C@H](Cc2c[nH]c3ccccc23)NC(=O)[C@H](CC(=O)O)NC(=O)[C@H](Cc2ccncc2)NC(=O)[C@H](Cc2ccc(OCC(=O)O)cc2)NC(=O)CSC[C@@H](C(=O)N2CCOC[C@H]2C(=O)NCCCCCCCCCCC(=O)O)NC(=O)[C@H](C(C)O)NC(=O)[C@H](C(C)C)NC(=O)[C@H](CC2CCCCC2)NC(=O)[C@H](CCN)NC(=O)[C@@H](CC(C)C)NC(=O)[C@H](C)N(C)C(=O)[C@H](C(C)C)NC(=O)[C@H](Cc2ccc(-c3ccccc3)cc2)NC1=O` (stereo partly drawn) [Example 1222] ({CH2CO}-Y(Carboxymethyl)[4Pal]DWL[Bip]V[NMeA][dL][Dab][Cha]V[Thr(3ξ)]C[Morpholine(3S-CO)][Aun]-OH; thioether N-14) the value was 591 nM.
Regarding `CC(C)C[C@@H]1NC(=O)[C@H](Cc2c[nH]c3ccccc23)NC(=O)[C@H](CC(=O)O)NC(=O)[C@H](Cc2ccncc2)NC(=O)[C@H](Cc2ccc(OCC(=O)O)cc2)NC(=O)CSC[C@@H](C(=O)N2CCOC[C@H]2C(=O)NCCCCCCCCCCC(=O)O)NC(=O)[C@H](CCCNC(N)=O)NC(=O)[C@H](C(C)C)NC(=O)[C@H](CC2CCCCC2)NC(=O)[C@H](CCN)NC(=O)[C@@H](CC(C)C)NC(=O)[C@H](C)N(C)C(=O)[C@H](C(C)C)NC(=O)[C@H](Cc2ccc(-c3ccccc3)cc2)NC1=O` [Example 1223] ({CH2CO}-Y(Carboxymethyl)[4Pal]DWL[Bip]V[NMeA][dL][Dab][Cha]V[Cit]C[Morpholine(3S-CO)][Aun]-OH; thioether N-14), the half-inhibitory concentration (IC50) came out at 420 nM.
Consider `Cc1cccc(C[C@@H]2NC(=O)[C@H](CC(=O)O)NC(=O)[C@H](Cc3ccc(OCC(=O)O)cc3)NC(=O)[C@H](CCCNC(=N)N)NC(=O)CSC[C@@H](C(=O)N[C@@H](CCCCN)C(=O)NCCCCCCCCCCC(=O)O)NC(=O)[C@H]([C@@H](C)O)NC(=O)[C@H](C(C)C)NC(=O)[C@H](CC3CCCCC3)NC(=O)[C@H](CCN)NC(=O)[C@@H](CC(C)C)NC(=O)[C@H](C)N(C)C(=O)[C@H](Cc3ccc(OCC(=O)O)cc3)NC(=O)[C@H](Cc3ccc(-c4ccccc4)cc3)NC(=O)[C@H](Cc3ccc(OCC(=O)O)cc3)NC2=O)c1` [Example 1224] ({CH2CO}-RY(Carboxymethyl)D[Phe(3-Me)]Y(Carboxymethyl)[Bip]Y(Carboxymethyl)[NMeA][dL][Dab][Cha]VTCK[Aun]-OH; thioether N-14), for which the IC50 worked out at 27.9 nM.

As usually defined, the IC50 is the concentration that inhibits the measured activity by half.
